# In patent US20160039767A1, “PYRAZOLE DERIVATIVES AS PRMT1 INHIBITORS AND USES THEREOF” (EPIZYME, INC., priority 2013, published 2016):
# Molecular target: T1, PRMT1 (Homo sapiens, UniProt Q99873)
# T1 construct: GST-tagged PRMT1; made in house; host or cells: High Five insect cells (baculovirus, pFastBacI)
# Experiment: PRMT1 Biochemical Assay (3H-SAM Flashplate, histone H4 peptide substrate)
# Conditions: Biochemical IC50 (Numerical, μM) PRMT1, single experiment or average of multiple experiments, Table 2a
# Excerpt: S-adenosylmethionine (SAM), S-adenosylhomocysteine (SAH), bicine, Tween20, dimethylsulfoxide (DMSO), bovine skin gelatin (BSG), and Tris(2-carboxyethyl)phosphine hydrochloride solution (TCEP) were purchased from Sigma-Aldrich at the highest level of purity possible. ^3H-SAM was purchase from American Radiolabeled Chemicals with a specific activity of 80 Ci/mmol. 384-well streptavidin Flashplates were purchased from PerkinElmer.
# Recombinant baculovirus were generated according to Bac-to-Bac kit instructions (Life Technologies). Protein over-expression was accomplished by infecting exponentially growing High Five insect cell culture at 1.5×10^6 cell/ml with 1:100 ratio of virus. Infections were carried out at 27° C. for 48 hours, harvested by centrifugation, and stored at −80° C. for purification.
# GST-tagged PRMT1 was eluted with 50 mM Tris, 2 mM glutathione, pH 7.8, dialysed in buffer A and concentrated to 1 mg/mL.
# General Procedure for PRMT1 Enzyme Assays on Peptide Substrates.
# The assays were all performed in a buffer consisting of 20 mM Bicine (pH=7.6), 1 mM TCEP, 0.005% BSG, and 0.002% Tween 20, prepared on the day of use. […] DMSO (1 ul) was added to Columns 11, 12, 23, 24, rows A-H for the maximum signal control and 1 ul of SAH, a known product and inhibitor of PRMT1, was added to columns 11, 12, 23, 24, rows I-P for the minimum signal control. A cocktail (40 ul) containing the PRMT1 enzyme was added by Multidrop Combi (Thermo-Fisher). The compounds were allowed to incubate with PRMT1 for 30 min at room temperature, then a cocktail (10 ul) containing SAM and peptide was added to initiate the reaction (final volume=51 ul). […] The assays were stopped by the addition of non-radiolabeled SAM (10 ul) to a final concentration of 300 uM, which dilutes the ^3H-SAM to a level where its incorporation into the peptide substrate is no longer detectable. […] The plates were then read in a PerkinElmer TopCount plate reader to measure the quantity of ^3H-labeled peptide bound to the Flashplate surface, measured as disintegrations per minute (dpm) or alternatively, referred to as counts per minute (cpm).
# Where dpm=disintegrations per minute, cmpd=signal in assay well, and min and max are the respective minimum and maximum signal controls.
# Where top and bottom are the normally allowed to float, but may be fixed at 100 or 0 respectively in a 3-parameter fit. The Hill Coefficient normally allowed to float but may also be fixed at 1 in a 3-parameter fit. Y is the % inhibition and X is the compound concentration.
# T1 sequence (Q99873 with tags, fused parts or gaps): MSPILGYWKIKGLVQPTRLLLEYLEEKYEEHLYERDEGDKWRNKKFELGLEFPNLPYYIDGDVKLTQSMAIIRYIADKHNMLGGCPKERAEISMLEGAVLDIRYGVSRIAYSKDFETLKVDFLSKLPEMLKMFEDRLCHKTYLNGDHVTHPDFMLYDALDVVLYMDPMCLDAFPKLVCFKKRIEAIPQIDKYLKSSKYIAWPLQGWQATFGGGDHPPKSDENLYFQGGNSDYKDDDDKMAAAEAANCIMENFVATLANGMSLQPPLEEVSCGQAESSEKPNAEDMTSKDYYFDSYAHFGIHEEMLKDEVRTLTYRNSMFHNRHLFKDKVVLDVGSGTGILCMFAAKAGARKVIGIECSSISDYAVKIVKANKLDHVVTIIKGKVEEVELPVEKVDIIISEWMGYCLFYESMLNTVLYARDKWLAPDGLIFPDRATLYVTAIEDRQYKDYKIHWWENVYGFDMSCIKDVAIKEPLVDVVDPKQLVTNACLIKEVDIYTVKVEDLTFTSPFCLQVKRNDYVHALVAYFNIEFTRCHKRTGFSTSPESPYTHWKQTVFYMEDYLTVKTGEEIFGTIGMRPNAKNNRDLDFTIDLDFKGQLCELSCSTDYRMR
row,Compound,IC50 [µM]
1,CNCCN(C)Cc1n[nH]cc1-c1cc(OCCOC)cc(C(F)(F)F)c1 [Compound 30],0.109
2,CNCCN(C)Cc1c[nH]nc1-c1ccc(CC(C)C)c(C(F)(F)F)c1 [Compound 34],0.00444
3,CNCCN(C)Cc1c[nH]nc1-c1cc(Cl)c(OCC2CCC2)c(C(F)(F)F)c1 [Compound 35],0.00431
4,CNCCN(C)Cc1c[nH]nc1-c1cc(Oc2ccccc2)cc(C(F)(F)F)c1 [Compound 36],0.0123
5,CNCCN(C)Cc1c[nH]nc1-c1cc(OCc2ccccc2)cc(C(F)(F)F)c1 [Compound 37],0.0185
6,CNCCN(C)Cc1c[nH]nc1-c1cc(Oc2ccncc2)cc(C(F)(F)F)c1 [Compound 38],0.138
7,CNCCN(C)Cc1c[nH]nc1-c1cc(Cl)c(OCC2CC2)c(C(F)(F)F)c1 [Compound 41],0.00636
8,CNCCN(C)Cc1c[nH]nc1-c1cc(OCC2CCC2)cc(C(F)(F)F)c1 [Compound 44],0.0132
9,CNCCN(C)Cc1c[nH]nc1-c1cc(OCC2CCOCC2)cc(C(F)(F)F)c1 [Compound 46],0.0282
10,CCC(CC)Oc1cc(-c2n[nH]cc2CN(C)CCNC)cc(C(F)(F)F)c1 [Compound 47],0.0135
11,CNCCN(C)Cc1c[nH]nc1-c1cc(OCCCC(F)(F)F)cc(C(F)(F)F)c1 [Compound 48],0.0303
12,CNCCN(C)Cc1c[nH]nc1-c1cc(OCCCC(C)=O)cc(C(F)(F)F)c1 [Compound 49],0.0366
13,CNCCN(C)Cc1c[nH]nc1-c1cc(OCCc2ccccc2OC)cc(C(F)(F)F)c1 [Compound 50],0.0138
14,CNCCN(C)Cc1c[nH]nc1-c1cc(Oc2cccnc2)cc(C(F)(F)F)c1 [Compound 51],0.0513
15,CNCCN(C)Cc1c[nH]nc1-c1cc(Oc2ccccn2)cc(C(F)(F)F)c1 [Compound 52],0.0359
16,CNCCN(C)Cc1c[nH]nc1-c1cc(C)c(OCC2CCC2)c(C(F)(F)F)c1 [Compound 58],0.00706
17,CNCCN(C)Cc1c[nH]nc1-c1cc(C)c(OC2CCOCC2)c(C(F)(F)F)c1 [Compound 59],0.0316
18,CNCCN(C)Cc1c[nH]nc1-c1cc(OCCOC)c(F)c(C(F)(F)F)c1 [Compound 64],0.104
19,CNCCN(C)Cc1c[nH]nc1-c1cc(C)c(OCC2CCOCC2)c(C(F)(F)F)c1 [Compound 65],0.0471
20,CNCCN(C)Cc1c[nH]nc1-c1cc(C)c(OC2COC2)c(C(F)(F)F)c1 [Compound 66],0.00756

# Tested on: RKO cells
# Experiment: RKO Methylation Assay (In Cell Western for mono-methyl arginine and DNA content)
# Assay type: cell-based
# Conditions: Homo sapiens, RKO, 72 h, read-out: In Cell Western data (Numerical, μM) EC30
# Excerpt: RKO adherent cells were purchased from ATCC (American Type Culture Collection), Manassas, Va., USA. DMEM/Glutamax medium, penicillin-streptomycin, heat inactivated fetal bovine serum, 0.05% trypsin and D-PBS were purchased from Life Technologies, Grand Island, N.Y., USA. Odyssey blocking buffer, 800CW goat anti-rabbit IgG (H+L) antibody, and Licor Odyssey infrared scanner were purchased from Licor Biosciences, Lincoln, Nebr., USA. Mono-methyl arginine antibody was purchased from Cell Signaling Technology, Danvers, Mass., USA. Methanol was purchased from VWR, Franklin, Mass., USA. 10% Tween 20 was purchased from KPL, Inc., Gaithersburg, Md., USA. DRAQ5 was purchased from Biostatus Limited, Leicestershire, UK.
# RKO adherent cells were maintained in growth medium (DMEM/Glutamax medium supplemented with 10% v/v heat inactivated fetal bovine serum and 100 units/mL penicillin-streptomycin) and cultured at 37° C. under 5% CO2.
# Cell Treatment, in Cell Western (ICW) for Detection of Mono-Methyl Arginine and DNA Content.
# Compound (100 nL) from a 96-well source plate was added directly to 384 well cell plate. Plates were incubated at 37° C., 5% CO2 for 72 hours. After three days of incubation, plates were brought to room temperature outside of the incubator for ten minutes and blotted on paper towels to remove cell media. 50 μL of ice cold 100% methanol was added directly to each well and incubated for 30 min at room temperature. After 30 min, plates were transferred to a Biotek EL406 plate washer and washed 2 times with 100 μL per well of wash buffer (1×PBS). Next 60 μL per well of Odyssey blocking buffer (Odyssey Buffer with 0.1% Tween 20 (v/v)) were added to each plate and incubated 1 hour at room temperature. Blocking buffer was removed and 20 μL per well of primary antibody was added (mono-methyl arginine diluted 1:200 in Odyssey buffer with 0.1% Tween 20 (v/v)) and plates were incubated overnight (16 hours) at 4° C. Plates were washed 5 times with 100 µL per well of wash buffer. Next 20 μL per well of secondary antibody was added (1:200 800CW goat anti-rabbit IgG (H+L) antibody, 1:1000 DRAQ5 (Biostatus limited) in Odyssey buffer with 0.1% Tween 20 (v/v)) and incubated for 1 hour at room temperature. The plates were washed 5 times with 100 μL per well wash buffer then 2 times with 100 μL per well of water. Plates were allowed to dry at room temperature then imaged on the Licor Odyssey machine which measures integrated intensity at 700 nm and 800 nm wavelengths. Both 700 and 800 channels were scanned.
# First, the ratio for each well was determined by:
# Each plate included fourteen control wells of DMSO only treatment (minimum activation) as well as fourteen control wells for maximum activation treated with 20 μM of a reference compound. The average of the ratio values for each control type was calculated and used to determine the percent activation for each test well in the plate. Reference compound was serially diluted three-fold in DMSO for a total of nine test concentrations, beginning at 20 μM. Percent activation was determined and EC30 curves were generated using triplicate wells per concentration of compound.
row,Compound,EC30 [µM]
1,CNCCN(C)Cc1c[nH]nc1-c1ccc(CC(C)C)c(C(F)(F)F)c1 [Compound 34],0.955
2,CNCCN(C)Cc1c[nH]nc1-c1cc(Cl)c(OCC2CCC2)c(C(F)(F)F)c1 [Compound 35],0.694
3,CNCCN(C)Cc1c[nH]nc1-c1cc(Cl)c(OCC2CC2)c(C(F)(F)F)c1 [Compound 41],2.39
4,CNCCN(C)Cc1c[nH]nc1-c1cc(OCC2CCC2)cc(C(F)(F)F)c1 [Compound 44],4.52
5,CNCCN(C)Cc1c[nH]nc1-c1cc(OCC2CCOCC2)cc(C(F)(F)F)c1 [Compound 46],2.62
6,CNCCN(C)Cc1c[nH]nc1-c1cc(C)c(OCC2CCC2)c(C(F)(F)F)c1 [Compound 58],0.547
7,CNCCN(C)Cc1c[nH]nc1-c1cc(C)c(OC2CCOCC2)c(C(F)(F)F)c1 [Compound 59],1.37
8,CNCCN(C)Cc1c[nH]nc1-c1cc(OCCOC)c(F)c(C(F)(F)F)c1 [Compound 64],13.2
9,CNCCN(C)Cc1c[nH]nc1-c1cc(C)c(OCC2CCOCC2)c(C(F)(F)F)c1 [Compound 65],1.45
10,CNCCN(C)Cc1c[nH]nc1-c1cc(C)c(OC2COC2)c(C(F)(F)F)c1 [Compound 66],0.724

# Same assay, conditions: Homo sapiens, RKO, 72 h, read-out: In Cell Western data EC30
row,Compound,EC30 [µM]
1,CNCCN(C)Cc1c[nH]nc1-c1ccc(CC(C)C)c(C(F)(F)F)c1 [Compound 34],< 3
2,CNCCN(C)Cc1c[nH]nc1-c1cc(Cl)c(OCC2CCC2)c(C(F)(F)F)c1 [Compound 35],< 3
3,CNCCN(C)Cc1c[nH]nc1-c1cc(Cl)c(OCC2CC2)c(C(F)(F)F)c1 [Compound 41],< 3
4,CNCCN(C)Cc1c[nH]nc1-c1cc(OCC2CCC2)cc(C(F)(F)F)c1 [Compound 44],3.01 to 12
5,CNCCN(C)Cc1c[nH]nc1-c1cc(OCC2CCOCC2)cc(C(F)(F)F)c1 [Compound 46],< 3
6,CNCCN(C)Cc1c[nH]nc1-c1cc(C)c(OCC2CCC2)c(C(F)(F)F)c1 [Compound 58],< 3
7,CNCCN(C)Cc1c[nH]nc1-c1cc(C)c(OC2CCOCC2)c(C(F)(F)F)c1 [Compound 59],< 3
8,CNCCN(C)Cc1c[nH]nc1-c1cc(OCCOC)c(F)c(C(F)(F)F)c1 [Compound 64],> 12
9,CNCCN(C)Cc1c[nH]nc1-c1cc(C)c(OCC2CCOCC2)c(C(F)(F)F)c1 [Compound 65],< 3
10,CNCCN(C)Cc1c[nH]nc1-c1cc(C)c(OC2COC2)c(C(F)(F)F)c1 [Compound 66],< 3

# Same assay, conditions: Homo sapiens; RKO cells, 72 hours, mono-methyl arginine; class symbols, Table 3; read-out: In Cell Western data EC30
row,Compound,EC30 [µM]
1,CNCCN(C)Cc1n[nH]cc1-c1cc(OCCOC)cc(C(F)(F)F)c1 [Compound 30],3.01 to 12
2,CNCCN(C)Cc1c[nH]nc1-c1cc(Oc2ccccc2)cc(C(F)(F)F)c1 [Compound 36],< 3
3,CNCCN(C)Cc1c[nH]nc1-c1cc(OCc2ccccc2)cc(C(F)(F)F)c1 [Compound 37],3.01 to 12
4,CNCCN(C)Cc1c[nH]nc1-c1cc(Oc2ccncc2)cc(C(F)(F)F)c1 [Compound 38],3.01 to 12
5,CCC(CC)Oc1cc(-c2n[nH]cc2CN(C)CCNC)cc(C(F)(F)F)c1 [Compound 47],< 3
6,CNCCN(C)Cc1c[nH]nc1-c1cc(OCCCC(F)(F)F)cc(C(F)(F)F)c1 [Compound 48],3.01 to 12
7,CNCCN(C)Cc1c[nH]nc1-c1cc(OCCCC(C)=O)cc(C(F)(F)F)c1 [Compound 49],3.01 to 12
8,CNCCN(C)Cc1c[nH]nc1-c1cc(OCCc2ccccc2OC)cc(C(F)(F)F)c1 [Compound 50],3.01 to 12
9,CNCCN(C)Cc1c[nH]nc1-c1cc(Oc2cccnc2)cc(C(F)(F)F)c1 [Compound 51],3.01 to 12
10,CNCCN(C)Cc1c[nH]nc1-c1cc(Oc2ccccn2)cc(C(F)(F)F)c1 [Compound 52],3.01 to 12

# Same assay, conditions: Homo sapiens; RKO cells, 72 hours, mono-methyl arginine; single experiment or average of multiple experiments, Table 3a; read-out: In Cell Western data (Numerical, μM) EC30
row,Compound,EC30 [µM]
1,CNCCN(C)Cc1n[nH]cc1-c1cc(OCCOC)cc(C(F)(F)F)c1 [Compound 30],13.1
2,CNCCN(C)Cc1c[nH]nc1-c1cc(Oc2ccccc2)cc(C(F)(F)F)c1 [Compound 36],2.18
3,CNCCN(C)Cc1c[nH]nc1-c1cc(OCc2ccccc2)cc(C(F)(F)F)c1 [Compound 37],5
4,CNCCN(C)Cc1c[nH]nc1-c1cc(Oc2ccncc2)cc(C(F)(F)F)c1 [Compound 38],8.58
5,CCC(CC)Oc1cc(-c2n[nH]cc2CN(C)CCNC)cc(C(F)(F)F)c1 [Compound 47],2.67
6,CNCCN(C)Cc1c[nH]nc1-c1cc(OCCCC(F)(F)F)cc(C(F)(F)F)c1 [Compound 48],4.2
7,CNCCN(C)Cc1c[nH]nc1-c1cc(OCCCC(C)=O)cc(C(F)(F)F)c1 [Compound 49],3.36
8,CNCCN(C)Cc1c[nH]nc1-c1cc(OCCc2ccccc2OC)cc(C(F)(F)F)c1 [Compound 50],4.37
9,CNCCN(C)Cc1c[nH]nc1-c1cc(Oc2cccnc2)cc(C(F)(F)F)c1 [Compound 51],6.9
10,CNCCN(C)Cc1c[nH]nc1-c1cc(Oc2ccccn2)cc(C(F)(F)F)c1 [Compound 52],4.44
